Experimental data published in patent publication US8802597B2, “Herbicidal pyrimidines” (E I du Pont de Nemours and Company, priority 2003, dated 2014).
Read-outs that look alike come from different tables or passages of the source.

Columns and labels:
Assay type in all cases: in vivo
[1] = tested on: blackgrass (Alopecurus myosuroides); assay: Test B postemergence; details: Alopecurus myosuroides, post-emergence
Summary of the method: (§1)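 Following sowing, compounds in a surfactant-bearing non-phytotoxic solvent were applied preemergence; emerged plants 2 to 18 cm high got postemergence treatment concurrently. Evaluation: 13 to 15 days later, greenhouse, 0–100 visual scale.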

wild oat (Avena fatua) = assay: Test B postemergence; details: Avena fatua, post-emergence
Summary of the method: as §1

[2] = tested on: pigweed (Amaranthus retroflexus); assay: Test B pre/postemergence; details: Amaranthus retroflexus; for pest or weed control at 125 g/ha: 125 g ai/ha; for pest or weed control at 500 g/ha: 500 g ai/ha
Summary of the method: as §1

[3] = tested on: crabgrass (Digitaria sanguinalis); assay: Test B pre/postemergence; details: Digitaria sanguinalis; for pest or weed control at 125 g/ha: 125 g ai/ha; for pest or weed control at 500 g/ha: 500 g ai/ha
Summary of the method: as §1

[4] = tested on: Surinam grass (Brachiaria decumbens); assay: Test B pre/postemergence; details: Urochloa decumbens; for pest or weed control at 125 g/ha: 125 g ai/ha; for pest or weed control at 500 g/ha: 500 g ai/ha
Summary of the method: as §1

[5] = tested on: wheat (Triticum aestivum); assay: Test B pre/postemergence; details: Triticum aestivum; for plant injury at 125 g/ha: 125 g ai/ha; for plant injury at 500 g/ha: 500 g ai/ha
Summary of the method: as §1

[6] = tested on: lambsquarters (Chenopodium album); assay: Test B pre/postemergence; details: Chenopodium album; for pest or weed control at 125 g/ha: 125 g ai/ha; for pest or weed control at 500 g/ha: 500 g ai/ha
Summary of the method: as §1

[7] = tested on: cocklebur (Xanthium strumarium); assay: Test B pre/postemergence; details: Xanthium strumarium; for pest or weed control at 125 g/ha: 125 g ai/ha; for pest or weed control at 500 g/ha: 500 g ai/ha
Summary of the method: as §1

[8] = tested on: giant foxtail (Setaria faberii); assay: Test B pre/postemergence; details: Setaria faberi; for pest or weed control at 125 g/ha: 125 g ai/ha; for pest or weed control at 500 g/ha: 500 g ai/ha
Summary of the method: as §1

[9] = tested on: velvetleaf (Abutilon theophrasti); assay: Test B pre/postemergence; details: Abutilon theophrasti; for pest or weed control at 125 g/ha: 125 g ai/ha; for pest or weed control at 500 g/ha: 500 g ai/ha
Summary of the method: as §1

[10] = tested on: barnyardgrass (Echinochloa crus-galli); assay: Test B pre/postemergence; details: Echinochloa crus-galli; for pest or weed control at 125 g/ha: 125 g ai/ha; for pest or weed control at 500 g/ha: 500 g ai/ha
Summary of the method: as §1

corn (Zea mays) = assay: Test B pre/postemergence; details: Zea mays
Summary of the method: as §1

[11] = tested on: morningglory (Ipomoea coccinea); assay: Test B pre/postemergence; details: Ipomoea; for pest or weed control at 125 g/ha: 125 g ai/ha; for pest or weed control at 500 g/ha: 500 g ai/ha
Summary of the method: as §1

[12] = tested on: duck salad (Heteranthera limosa); assay: Test B flooded paddy test; details: Heteranthera limosa, Flood, 1000 g ai/ha; scale 0 to 100; read-out: Plant response rating, Ducksalad
Summary of the method: (§2)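 Rice, umbrella sedge, duck salad and barnyardgrass grown to 2-leaf stage under flooded paddy conditions and treated with formulated test chemicals. Kept in greenhouse 13–15 days, then visually rated against untreated controls on a 0–100 scale (0 no effect, 100 complete control).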

[13] = tested on: umbrella sedge (Cyperus difformis); assay: Test B flooded paddy test; details: Cyperus difformis, Flood, 1000 g ai/ha; scale 0 to 100; read-out: Plant response rating, Sedge, Umbrella
Summary of the method: as §2

[14] = tested on: barnyardgrass (Echinochloa crus-galli); assay: Test B flooded paddy test; details: Echinochloa crus-galli, Flood, 1000 g ai/ha; scale 0 (no effect) to 100 (complete control); read-out: Plant response rating, Barnyardgrass
Summary of the method: as §2

rice (Oryza sativa) = assay: Test B flooded paddy test; details: Oryza sativa, Flood, 1000 g ai/ha; scale 0 to 100; read-out: Plant response rating, Rice
Summary of the method: as §2

Molecule `Nc1nc(C2CC2)nc(CO)c1Br` [Compound 21] has a pest or weed control at 125 g/ha ([1]; 125 g ai/ha, scale 0 to 100 (0 no effect, 100 complete control), read-out: Blackgrass plant response rating) of 10%, a pest or weed control at 500 g/ha ([1]; 500 g ai/ha, scale 0 to 100, read-out: Plant response rating, Blackgrass) of 20% and a pest or weed control at 125 g/ha (wild oat (Avena fatua); 125 g ai/ha, scale 0 to 100 (0 no effect, 100 complete control), read-out: Oat, Wild plant response rating) of 0%. For the same molecule, the pest or weed control at 500 g/ha (wild oat (Avena fatua); 500 g ai/ha, scale 0 to 100, read-out: Plant response rating, Oat, Wild) was 0%, the pest or weed control at 125 g/ha ([2]; post-emergence, Postemergence, scale 0 to 100 (0 no effect, 100 complete control), read-out: Pigweed plant response rating) was 0% and the pest or weed control at 500 g/ha ([2]; post-emergence, Postemergence, scale 0 to 100, read-out: Plant response rating, Pigweed) was 30%. It also gave a pest or weed control at 125 g/ha ([2]; pre-emergence, Preemergence, scale 0 to 100 (0 no effect, 100 complete control), read-out: Plant response rating, Pigweed) of 50%, a pest or weed control at 500 g/ha ([2]; pre-emergence, Preemergence, scale 0 to 100 (0 no effect, 100 complete control), read-out: Pigweed plant response rating) of 70% and a pest or weed control at 125 g/ha ([3]; post-emergence, Postemergence, scale 0 to 100 (0 no effect, 100 complete control), read-out: Crabgrass plant response rating) of 0%. For the same molecule, the pest or weed control at 500 g/ha ([3]; post-emergence, Postemergence, scale 0 to 100, read-out: Plant response rating, Crabgrass) was 0%, the pest or weed control at 125 g/ha ([3]; pre-emergence, Preemergence, scale 0 to 100 (0 no effect, 100 complete control), read-out: Plant response rating, Crabgrass) was 0% and the pest or weed control at 500 g/ha ([3]; pre-emergence, Preemergence, scale 0 to 100 (0 no effect, 100 complete control), read-out: Crabgrass plant response rating) was 60%. For the same molecule, the pest or weed control at 125 g/ha ([4]; post-emergence, Postemergence, scale 0 to 100 (0 no effect, 100 complete control), read-out: Surinam Grass plant response rating) was 0%, the pest or weed control at 500 g/ha ([4]; post-emergence, Postemergence, scale 0 to 100, read-out: Plant response rating, Surinam Grass) was 0% and the pest or weed control at 125 g/ha ([4]; pre-emergence, Preemergence, scale 0 to 100 (0 no effect, 100 complete control), read-out: Plant response rating, Surinam Grass) was 0%. The pest or weed control at 500 g/ha ([4]; pre-emergence, Preemergence, scale 0 to 100 (0 no effect, 100 complete control), read-out: Surinam Grass plant response rating) was 20%, the plant injury at 125 g/ha ([5]; post-emergence, Postemergence, scale 0 to 100 (0 no effect, 100 complete control), read-out: Wheat plant response rating) was 10% and the plant injury at 500 g/ha ([5]; post-emergence, Postemergence, scale 0 to 100, read-out: Plant response rating, Wheat) was 20%. The plant injury at 125 g/ha ([5]; pre-emergence, Preemergence, scale 0 to 100 (0 no effect, 100 complete control), read-out: Plant response rating, Wheat) was 0%, the plant injury at 500 g/ha ([5]; pre-emergence, Preemergence, scale 0 to 100 (0 no effect, 100 complete control), read-out: Wheat plant response rating) was 30% and the pest or weed control at 125 g/ha ([6]; post-emergence, Postemergence, scale 0 to 100 (0 no effect, 100 complete control), read-out: Lambsquarters plant response rating) was 10%. It also gave a pest or weed control at 500 g/ha ([6]; post-emergence, Postemergence, scale 0 to 100, read-out: Plant response rating, Lambsquarters) of 20%, a pest or weed control at 125 g/ha ([6]; pre-emergence, Preemergence, scale 0 to 100 (0 no effect, 100 complete control), read-out: Plant response rating, Lambsquarters) of 70% and a pest or weed control at 500 g/ha ([6]; pre-emergence, Preemergence, scale 0 to 100 (0 no effect, 100 complete control), read-out: Lambsquarters plant response rating) of 80%. It also gave a pest or weed control at 125 g/ha ([7]; post-emergence, Postemergence, scale 0 to 100 (0 no effect, 100 complete control), read-out: Cocklebur plant response rating) of 0%, a pest or weed control at 500 g/ha ([7]; post-emergence, Postemergence, scale 0 to 100, read-out: Plant response rating, Cocklebur) of 10% and a pest or weed control at 125 g/ha ([7]; pre-emergence, Preemergence, scale 0 to 100 (0 no effect, 100 complete control), read-out: Plant response rating, Cocklebur) of 30%. It also gave a pest or weed control at 500 g/ha ([7]; pre-emergence, Preemergence, scale 0 to 100 (0 no effect, 100 complete control), read-out: Cocklebur plant response rating) of 80%, a pest or weed control at 125 g/ha ([8]; post-emergence, Postemergence, scale 0 to 100 (0 no effect, 100 complete control), read-out: Foxtail, Giant plant response rating) of 0% and a pest or weed control at 500 g/ha ([8]; post-emergence, Postemergence, scale 0 to 100, read-out: Plant response rating, Foxtail, Giant) of 0%. It also gave a pest or weed control at 125 g/ha ([8]; pre-emergence, Preemergence, scale 0 to 100 (0 no effect, 100 complete control), read-out: Plant response rating, Foxtail, Giant) of 0%, a pest or weed control at 500 g/ha ([8]; pre-emergence, Preemergence, scale 0 to 100 (0 no effect, 100 complete control), read-out: Foxtail, Giant plant response rating) of 10% and a pest or weed control at 125 g/ha ([9]; post-emergence, Postemergence, scale 0 to 100 (0 no effect, 100 complete control), read-out: Velvetleaf plant response rating) of 10%. It also gave a pest or weed control at 500 g/ha ([9]; post-emergence, Postemergence, scale 0 to 100, read-out: Plant response rating, Velvetleaf) of 30%, a pest or weed control at 125 g/ha ([9]; pre-emergence, Preemergence, scale 0 to 100 (0 no effect, 100 complete control), read-out: Plant response rating, Velvetleaf) of 10% and a pest or weed control at 500 g/ha ([9]; pre-emergence, Preemergence, scale 0 to 100 (0 no effect, 100 complete control), read-out: Velvetleaf plant response rating) of 80%. The pest or weed control at 125 g/ha ([10]; post-emergence, Postemergence, scale 0 to 100 (0 no effect, 100 complete control), read-out: Barnyardgrass plant response rating) was 0%, the pest or weed control at 500 g/ha ([10]; post-emergence, Postemergence, scale 0 to 100, read-out: Plant response rating, Barnyardgrass) was 0% and the pest or weed control at 125 g/ha ([10]; pre-emergence, Preemergence, scale 0 to 100 (0 no effect, 100 complete control), read-out: Plant response rating, Barnyardgrass) was 0%. It also gave a pest or weed control at 500 g/ha ([10]; pre-emergence, Preemergence, scale 0 to 100 (0 no effect, 100 complete control), read-out: Barnyardgrass plant response rating) of 10%, a plant injury at 125 g/ha (corn (Zea mays); post-emergence, Postemergence, 125 g ai/ha, scale 0 to 100 (0 no effect, 100 complete control), read-out: Corn plant response rating) of 0% and a Corn plant response rating (crop injury, 0 = no effect, 100 = complete kill) at 500 g/ha (corn (Zea mays); post-emergence, Postemergence, 500 g ai/ha, scale 0 to 100) of 0%. It also gave a Corn plant response rating (crop injury, 0 = no effect, 100 = complete kill) at 125 g/ha (corn (Zea mays); pre-emergence, Preemergence, 125 g ai/ha, scale 0 to 100 (0 no effect, 100 complete control)) of 0%, a pest or weed control at 125 g/ha ([11]; post-emergence, Postemergence, scale 0 to 100 (0 no effect, 100 complete control), read-out: Morningglory plant response rating) of 10% and a pest or weed control at 500 g/ha ([11]; post-emergence, Postemergence, scale 0 to 100, read-out: Plant response rating, Morningglory) of 30%. It also gave a pest or weed control at 125 g/ha ([11]; pre-emergence, Preemergence, scale 0 to 100 (0 no effect, 100 complete control), read-out: Plant response rating, Morningglory) of 50%, a pest or weed control at 500 g/ha ([11]; pre-emergence, Preemergence, scale 0 to 100 (0 no effect, 100 complete control), read-out: Morningglory plant response rating) of 90% and a pest or weed control at 1000 g/ha [12] of 80%. The pest or weed control at 1000 g/ha [13] was 0%, the pest or weed control at 1000 g/ha [14] was 60% and the plant injury at 1000 g/ha (rice (Oryza sativa)) was 40%.
